IC50 data for 39 compounds are collected here from US9090593B2, “Bicyclic compounds as Pim inhibitors” (AMGEN INC., priority 2010, dated 2015).

Assay [1] deals with T1, full length recombinant Pim-2 protein (Homo sapiens, UniProt Q9P1W9).
T1 construct: by full length recombinant Pim-1, Pim-2, or Pim-3 protein; hexahistidine tag followed by a thrombin cleavage site (N); made in house; host or cells: Sf9 (baculovirus) or E. coli (pET28)
The assay can be described thus: Pim-2 enzyme assay (HTRF, phosphorylation of biotinylated-BAD (S112) peptide). The following applies: read-out: Pim2_IC50. Type of assay: biochemical. An excerpt:
(§1) These cDNAs were used as templates in PCR reactions to produce full-length DNA clones of the PIMs. […] PCR products were digested with […] and EcoRI for Pim-1 and BamHI and EcoRI for Pim-2 and ligated into a modified baculovirus transfer vector (pFastBac1) cleaved with BamHI and EcoRI. For bacterial expression, the same cleaved PCR products encoding Pim-1 or Pim-2 were ligated into a modified E. coli expression vector pET28(a) cleaved with BamHI and EcoRI Amino-terminal hexahistidine tags followed by a thrombin cleavage site were previously added to the vectors using standard methods of molecular biology. Recombinant baculoviruses expressing Pim-1 or Pim-2 were made using standard methods (Fastbac manual, Invitrogen, Carlsbad, Calif.). Infection of Sf9 cells was done at an m.o.i. of greater than 5 for 24-48 h. Cells were harvested by centrifugation and frozen at −80 C. For E. coli expression, cells carrying pET28-His6-Th-Pim-1 or pET28-His6-Th-Pim-2 were picked from a single colony and grown o/n in LB media. The o/n culture was used to inoculate a 2 liter flask with 500 mL media. This was grown o/n and used to inoculate 15-20 liters of Terrific Broth in a New Brunswick Scientific fermentor. The E. coli were grown at 37° C. to and OD600>1.6. The temperature was dropped to 18° C. and o/n expression was induced with 0.5 mM IPTG. Cells were harvested by centrifugation and frozen at −80° C.
(§2) This step was repeated 3× and the resin was transferred to a 2.5 cm glass column. Ten column volumes of wash buffer (0.05 M HEPES, pH 8.0, 0.1 M NaCl, 0.01 M 2-mercaptoethanol, 10% (w/v) glycerol) were applied to the resin followed by 10 column volumes of elution buffer (0.05 M HEPES, pH 8.0, 0.25 M NaCl, 0.01 M 2-mercaptoethanol, 10% (w/v) glycerol, 0.1 M imidazole). Fractions were analyzed by SDS-PAGE and those containing the protein of interest were pooled and concentrated. The concentrated protein was applied to an Amersham Superdex 75 (XK 26/60) column equilibrated in 0.025 M Tris-HCl, pH 7.5, 0.1 M NaCl, 0.01 M 2-mercaptoethanol, 10% (w/v) glycerol. […] Fractions containing the monomeric protein of interest were pooled, concentrated to ˜2 mg/mL, and stored at −80° C.
(§3) The phosphorylation of biotinylated-BAD (S112) peptide by full length recombinant Pim-1, Pim-2, or Pim-3 protein was detected with streptavidin:Allophycocyanin (APC) conjugate and a europium (Eu) labeled antibody directed against phosphorylated-BAD (S112). […] The fluorescence is directly proportional to the amount of phosphorylated BAD peptide present in the reaction.
(§4) A reference compound was included on each assay plate in order to validate that plate; on one plate of every assay run, two additional reference compounds were included.
(§5) The final buffer conditions were as follows: 60 mM Hepes, pH 7.0, 0.05% BSA, 2 mM DTT. […] The reaction was stopped by the addition of 3 mM EDTA, and fluorescence was measured by an HTRF® Rubystar microplate reader. For each plate, percent of control (POC) values were calculated for each well. Values for the IC50 IP were estimated using a standard 4-parameter logistic model.

The target in assay [2] is T2, full length recombinant Pim-1 protein (Homo sapiens, UniProt P11309).
T2 construct: by full length recombinant Pim-1, Pim-2, or Pim-3 protein; hexahistidine tag followed by a thrombin cleavage site (N); made in house; host or cells: Sf9 (baculovirus) or E. coli (pET28)
Put plainly: Pim-1 enzyme assay (HTRF, phosphorylation of biotinylated-BAD (S112) peptide). The format is biochemical. As to conditions: read-out: Pim_1_IC50.
Source text: as §1, §2, §3, §4, §5

T1 sequence (Q9P1W9 whole entry): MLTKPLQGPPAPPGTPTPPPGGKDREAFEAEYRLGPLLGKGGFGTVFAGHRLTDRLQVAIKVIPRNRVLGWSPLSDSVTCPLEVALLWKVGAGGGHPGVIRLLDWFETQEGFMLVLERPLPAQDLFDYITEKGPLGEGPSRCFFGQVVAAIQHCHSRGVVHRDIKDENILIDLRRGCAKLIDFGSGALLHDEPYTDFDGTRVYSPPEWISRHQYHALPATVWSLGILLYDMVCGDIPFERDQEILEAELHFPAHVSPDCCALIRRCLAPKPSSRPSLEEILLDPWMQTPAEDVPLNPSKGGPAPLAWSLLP
T2 sequence (P11309 whole entry): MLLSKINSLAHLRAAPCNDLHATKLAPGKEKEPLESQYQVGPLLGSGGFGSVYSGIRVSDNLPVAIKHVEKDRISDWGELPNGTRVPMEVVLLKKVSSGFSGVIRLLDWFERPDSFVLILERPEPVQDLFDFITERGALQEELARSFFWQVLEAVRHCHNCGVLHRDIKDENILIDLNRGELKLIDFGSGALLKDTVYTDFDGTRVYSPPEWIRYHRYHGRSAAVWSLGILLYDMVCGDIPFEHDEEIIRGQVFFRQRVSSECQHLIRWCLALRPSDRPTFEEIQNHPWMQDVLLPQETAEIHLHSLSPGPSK

Take `CC1CCCN(c2cnc(-c3ccc4[nH]cc(-c5cncc(O[C@@H]6CCCNC6)n5)c4c3)cn2)C1` (mixture of isomers) [Example 306]: the IC50 came out at 93 nM in assay [1] and 23 nM in assay [2].

For the compound `c1cc2[nH]cc(-c3cncc(O[C@@H]4CCCNC4)n3)c2cc1-c1cncc(C2CCCN2)c1` (stereo partly shown) [Example 340], the IC50 in assay [1] was 260 nM; in assay [2] it was 42 nM.

`COC(=O)c1ccc2[nH]nc(-c3ccnc(O[C@@H]4CCCNC4)n3)c2c1` [Example 497]: the results for the IC50 in assay [1] and in assay [2] were 207 nM and 46 nM, respectively.

For `CC(C)Oc1ccc(-c2ccc3[nH]cc(-c4cncc(O[C@@H]5CCCNC5)n4)c3c2)cc1C#N` [Example 352], the values for the IC50 in assay [1] and in assay [2] were 133 nM and 30 nM, respectively.

For the compound `CC1CNCC(Oc2cncc(-c3n[nH]c4ccc(-c5c(F)cccc5F)cc34)n2)C1` (single isomer, unassigned) [Example 468], the IC50 in assay [1] worked out at 196 nM; in assay [2], 70 nM.

As to `COc1cc(-c2c[nH]c3ccc(-c4c(F)cccc4F)cc23)nc(N2CCOCC2)n1` [Example 562], the IC50 in assay [1] and in assay [2] was more than 1000 nM each time.

As for `COc1cncc(-c2n[nH]c3ccc(-c4nccc(N5CCOC[C@@H]5C)n4)cc23)n1` [Example 376], the IC50 came out at 275 nM in assay [1] and 21 nM in assay [2].

For `CC(=O)c1ccc2[nH]nc(-c3cncc(O[C@H]4CNCCC45CC5)n3)c2c1` [Example 268, 1-(3-(6-((4R)-6-azaspiro[25]oct-4-yloxy)-2-pyrazinyl)-1H-indazol-5-yl)ethanone 2,2,2-trifluoroacetate], the IC50 in assay [1] worked out at 146 nM; in assay [2], 105 nM.

For `CN(C)c1cc(=O)[nH]c(-c2c[nH]c3ccc(-c4c(F)cccc4F)cc23)n1` [Example 496], the figures for the IC50 in assay [1] and in assay [2] were more than 1000 nM and 159 nM, respectively.

On to `O[C@@H]1CN(c2cncc(-c3n[nH]c4ccc(-c5c(F)cccc5F)cc34)n2)C[C@@H]1O` [Example 448], for which the results for the IC50 in assay [1] and in assay [2] were 137 nM and 105 nM, respectively.

On to `N#Cc1cc(-c2ccc3[nH]cc(-c4cncc(O[C@@H]5CCCNC5)n4)c3c2)ccc1F` [Example 295], for which the IC50 was found to be 75 nM in assay [1] and 34 nM in assay [2].

In the case of `CS(=O)(=O)Nc1cc(-c2ccc3[nH]cc(-c4cncc(O[C@@H]5CCCNC5)n4)c3c2)cnc1Cl` [Example 334], the IC50 was determined as 149 nM in assay [1] and 72 nM in assay [2].

As for `O[C@@H]1CN(c2cncc(-c3n[nH]c4ccc(-c5c(F)cccc5F)cc34)n2)CC[C@@H]1O` (single isomer, unassigned) [Example 250, cis-1-(6-(5-(2,6-difluorophenyl)-1H-indazol-3-yl)-2-pyrazinyl)-3,4-piperidinediol], the results for the IC50 in assay [1] and in assay [2] were 309 nM and 46 nM, respectively.

For `COc1ccc(OC)c(-c2ccc3[nH]cc(-c4cncc(O[C@@H]5CCCNC5)n4)c3c2)c1` [Example 329], the IC50 in assay [1] was found to be 514 nM; in assay [2], 83 nM.

On to `CN(C)c1nc(-c2n[nH]c3ccc(-c4c(F)cccc4F)cc23)cc(=O)[nH]1` [Example 526], for which the IC50 in assay [1] turned out to be 91 nM; in assay [2], 34 nM.

Consider `CC(C)Oc1cncc(-c2ccc3[nH]cc(-c4nnc(N[C@H]5CCCNC5)o4)c3c2)n1` [Example 514], for which the IC50 was found to be 194 nM in assay [1] and 52 nM in assay [2].

Consider `CN(C)c1nc(-c2n[nH]c3ccc(Nc4c(F)cccc4F)cc23)cc(=O)[nH]1` [Example 285, 6-(5-((2,6-difluorophenyl)amino)-1H-indazol-3-yl)-2-(dimethylamino) pyrimidin-4(3H)-one], for which the IC50 in assay [1] was 67 nM; in assay [2], 20 nM.

Regarding `CC1CCN(c2cccc(-c3ccc4[nH]cc(-c5cncc(O[C@@H]6CCCNC6)n5)c4c3)n2)CC1` [Example 304], the IC50 in assay [1] turned out to be 619 nM; in assay [2], 52 nM.

Take `CC(C)Cc1ccc(-c2ccc3[nH]cc(-c4cncc(O[C@@H]5CCCNC5)n4)c3c2)cc1` [Example 332]: the IC50 in assay [1] amounted to 156 nM; in assay [2], 43 nM.

In the case of `Fc1cccc(F)c1-c1ccc2[nH]nc(-c3cncc(Oc4cccnc4)n3)c2c1` [Example 246, 5-(2,6-difluorophenyl)-3-(6-(3-pyridinyloxy)-2-pyrazinyl)-1H-indazole], the IC50 in assay [1] was determined as 798 nM; in assay [2], 551 nM.

Turning to `Fc1cccc(F)c1-c1ccc2[nH]cc(-c3cncc(OC4CNCCC45CC5)n3)c2c1` (single isomer, unassigned) [Example 439], the results for the IC50 in assay [1] and in assay [2] were 407 nM and 159 nM, respectively.

For `O=C(O)c1cccc(-c2ccc3[nH]cc(-c4cncc(O[C@@H]5CCCNC5)n4)c3c2)c1` [Example 325], the IC50 in assay [1] came out at 46 nM; in assay [2], 21 nM.

Regarding `COc1cc(N2CCC(N)CC2)nc(-c2n[nH]c3ccc(-c4c(F)cccc4F)cc23)n1` [Example 472], the IC50 amounted to 617 nM in assay [1] and 112 nM in assay [2].

As to `O=c1cc(-c2n[nH]c3ccc(-c4c(F)cccc4F)cc23)nc(N2CC[C@H](O)C2)[nH]1` [Example 543], the IC50 in assay [1] was 58 nM; in assay [2] it was 30 nM.

Regarding `Cc1ccc(C(=O)NC2CCC2)cc1-c1ccc2[nH]cc(-c3cncc(O[C@@H]4CCCNC4)n3)c2c1` [Example 314], the IC50 in assay [1] came to 428 nM; in assay [2], 288 nM.

With `c1cnc(-c2c[nH]c3ccc(-c4cncc(C5CC5)n4)cc23)cn1` [Example 521], the results for the IC50 in assay [1] and in assay [2] were more than 1000 nM and 425 nM, respectively.

As to `CNC(=O)c1ccc2[nH]nc(-c3cncc(N4CCC(N)CC4)n3)c2c1` [Example 480], the IC50 was 203 nM in assay [1] and 106 nM in assay [2].

For the compound `c1cnc(N2CCOCC2)c(-c2ccc3[nH]cc(-c4cncc(O[C@@H]5CCCNC5)n4)c3c2)c1` [Example 338], the IC50 in assay [2] amounted to 69 nM.

Regarding `c1cc(OC2CCCC2)nc(-c2ccc3[nH]cc(-c4cncc(O[C@@H]5CCCNC5)n4)c3c2)c1` [Example 298], the results for the IC50 in assay [1] and in assay [2] were 234 nM and 31 nM, respectively.

As to `C[C@@H]1CN(c2ccc3[nH]nc(-c4cncc(O[C@H]5CNCCC56CC6)n4)c3c2)CCO1` [Example 401], the values for the IC50 in assay [1] and in assay [2] were 58 nM and 30 nM, respectively.

Regarding `CN(C)C(=O)c1ccc2[nH]nc(-c3ccnc(N[C@@H]4CCCNC4)n3)c2c1` [Example 481], the IC50 stood at 719 nM in assay [1] and 444 nM in assay [2].

As for `c1cc2[nH]cc(-c3cncc(O[C@@H]4CCCNC4)n3)c2cc1-c1csc(N2CCCC2)n1` [Example 553], the IC50 in assay [1] is 520 nM; in assay [2], 77 nM.

Take `CN(C)C(=O)c1ccc2[nH]nc(-c3cncc(NC4CCNCC4)n3)c2c1` [Example 487]: the IC50 amounted to 217 nM in assay [1] and 159 nM in assay [2].

For the compound `CC(C)Oc1cncc(-c2ccc3[nH]cc(-c4nnc(N[C@@H]5CCNC5)o4)c3c2)n1` [Example 512], the IC50 in assay [1] was 93 nM; in assay [2], 47 nM.

Regarding `O=c1cc(-c2n[nH]c3ccc(-c4c(F)cccc4F)cc23)nc[nH]1` [Example 530], the IC50 in assay [1] was 565 nM; in assay [2], 834 nM.

Consider `CN(C)C(=O)c1ccc2[nH]nc(-c3cncc(N4CCC(N)CC4)n3)c2c1` [Example 484], for which the IC50 is more than 1000 nM in assay [1] and 374 nM in assay [2].

For the compound `CC(C)Oc1cncc(-c2ccc3[nH]cc(-c4nnc(N[C@H]5CCNC5)o4)c3c2)n1` [Example 511], the figures for the IC50 in assay [1] and in assay [2] were 480 nM and 98 nM, respectively.

With `c1cc(C2CC2)nc(-c2c[nH]c3ccc(-c4cncc(C5CC5)n4)cc23)n1` [Example 371], the IC50 in assay [1] amounted to 113 nM; in assay [2], 26 nM.

For the compound `CC(C)Oc1cncc(-c2ccc3[nH]cc(-c4nnc(N5CCC[C@@H](N)C5)o4)c3c2)n1` [Example 525], the IC50 in assay [2] turned out to be 70 nM.
